Where “and” joins values, the source holds several entries; their conditions need not be identical. Equal entries are not always repeated. Where two headings read alike, the source gives them in different places.
Tests used:
[1] = tested on: stomach worm (Haemonchus controtus); assay: Anthelmintic test against cow stomach worm in naturally infected cows, E.P.G. on 7th day (Test Examples A6, B6, C6, D6); assay type: in vivo; conditions: cows
Protocol: Three cows infected with stomach worm (naturally infected cows) were employed by grouping them into a group of two and a group of one.
(§1) As control, only gelatin capsules were administered orally to the one cow.
(§2) Before administration and on the 7th day after administration, fecal matter testing was conducted to calculate the E.P.G., and the anthelmintic effect was judged by the changing of the E.P.G. to negative.
as §1, §1

[2] = tested on: canine strongyloides (Strongyloides stercoralis); assay: Anthelmintic test against canine strongyloides in naturally infected dogs, E.P.G. on 7th day (Test Examples A4, B4, C4, D4); assay type: in vivo; conditions: dogs, 10 mg/Kg orally once, one value per dog
Protocol: Three dogs infected with canine strongyloides (naturally infected dogs) were employed by grouping them into a group of two and a group of one.
As control, only a gelatin capsule was administered orally to the one dog.
as §2
(§3) As control, only gelatin capsules were administered orally to the one dog.
as §3

[3] = tested on: Diphyllobothrium erinacei; assay: Test of anthelmintic effect against Diphyllobothrium erinacei (tapeworm) in experimentally infected cats (Test Examples A5, B5, C5, D5); conditions: for Number of worm bodies remaining in enteron: cats infected with 5 plerocercoids, autopsy ten days after administration, one value per cat; for Worm egg detection on 10th day after administration / anthelmintic effect: cats; for anthelmintic effect: 5 continuous administrations of 50 mg/Kg
[4] = tested on: fowl roundworm (As. galli); assay: Anthelmintic test in chickens artificially infected with fowl roundworm, compound added to feed, E.P.G. and worm count up to 21st day (Test Examples A2, B2, C2, D2); assay type: in vivo, Ascaridia galli; conditions: for inhibition in vivo at 10 ppm / inhibition in vivo at 50 ppm / inhibition in vivo at 20 ppm / inhibition in vivo at 25 ppm: Ascaridia galli, 504 h, read-out: Anthelmintic effect; for inhibition in vivo at 10 ppm: 10 ppm added to feed; for inhibition in vivo at 20 ppm: 20 ppm added to feed
[5] = tested on: swine Oesophagostomum (Oesophagostomum dentatum); assay: Test of anthelmintic effect against swine Oesophagostomum in naturally infected pigs, E.P.G. on 7th day (Test Examples A8, B8, C8, D8); assay type: in vivo; conditions: for anthelmintic effect: one administration of 20 mg/Kg
Protocol: Six pigs infected with swine Oesophagostomum (naturally infected pigs) were employed by grouping them into groups each of two pigs.
(§4) As a control, only gelatin capsules were administered orally to the two pigs.
as §2

[6] = tested on: canine filaria; Dirofilaria immitis; assay: Test of anthelmintic effect against canine filaria in naturally infected dogs, subcutaneous injection, microfilaria in blood and adult filaria at autopsy (Test Examples A10, B10, C10, D10); assay type: in vivo; conditions: for inhibition in vivo at 20 mg/kg: Dirofilaria immitis, sc, 240 h
[7] = tested on: Liver fluke; Fasciola hepatica (F. hepatica); assay: Test of anthelmintic effect against rat infected experimentally with liver fluke (Test Examples A11, B11, C11, D11); assay type: in vivo; parameters: key to Presence or absence of fluke egg in fecal matter On 21st day after the last administration: +: indicates detection of fluke egg; -: indicates no detection; conditions: for anthelmintic effect: five administrations in a dose of 50 mg/Kg each
Text: Twenty-eight (28) rats were employed in fourteen groups each of two rats, each rat being infected with 5 metacercariae of Liver fluke; Fasciola he^patica (F.. hepatica) and confirmed to have worm eggs on the 75th day after infection according to fecal matter testing.
Judgement of the effect was made by the presence or absence of the worm gees in the fecal matter on the 21st day after the last administration and by examination according to autopsis as to whether the worm bodies were dead or alive in the liver.
The same as that in Test Example All, but eight (8) rats were employed by grouping them into groups each of two rats, each rat being infected with 5 metacercariae of liver fluke and confirmed to have fluke eggs on the 75th day after infection according to fecal matter testing.
The compounds provided for the tests were Compound Nos. Bl, B8 and B19.
The same as that in Test Example All, but six (6) rats were employed by grouping them into groups each of two rats, each rat being infected with 5 metacercariae of Fasciola hepatica and confirmed to have worm eggs on the 75th day after infection according to fecal matter testing.
The compounds provided for the tests were Compound Nos. C2 and C6.
The same as that in Test Example All, but the compounds provided for tests were Compound Nos. D14, D15 and D16.

[8] = tested on: swine roundworm (Ascaris suum); assay: Test of anthelmintic effect in naturally infected pigs, E.P.G. on 7th day: swine roundworm (Test Examples A9, B9, C9, D9); assay type: in vivo; conditions: for anthelmintic effect: pigs infected with swine roundworm and swine whipworm (statement covers both)
Protocol: (§5) Six pigs infected with swine roundworm and swine whipworm (naturally infected pigs) were employed in groups each of two pigs.
as §4
(§6) Before administration and on the 7th day after. administration, fecal matter testing was conducted to calculate the E.P.G., and the anthelmintic effect was judged by the changing of the E.P.G. to negative'.
(§7) 50 mg of each compound was placed in a gelatin capsule per 1 Kg of body weight and administered orally to each of the two pigs. As control, only gelatin capsules were administered orally to two pigs.
(§8) 30 mg of each compound was placed in a gelatin capsule per 1 Kg of body weight and administered orally to each of the two pigs. As control, only gelatin capsules were administered orally to two pigs.

[9] = tested on: swine whipworm (Trichuris suis); assay: Test of anthelmintic effect in naturally infected pigs, E.P.G. on 7th day: swine whipworm (Test Examples A9, B9, C9, D9); assay type: in vivo
Protocol: as §5, §4, §6, §7, §8

[10] = tested on: fowl roundworm (Ascaridia galli); assay: Anthelmintic test in chickens artificially infected with fowl roundworm, single oral dose in gelatin capsule, worm bodies counted within 48 hours (Test Examples A1, B1, C1, D1); assay type: in vivo; conditions: Ascaridia galli, po, 48 h, read-out: Anthelmintic effect after 48 hours
How it was run: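 Groups of three chickens with confirmed Ascaridia galli infection given a single oral dose in gelatin capsule (10 and 20 mg/kg in A1 and B1; 30 and 50 mg/kg in C1; 15 and 30 mg/kg in D1). Worms expelled over 48 h and those remaining in the gut at necropsy counted to give anthelmintic percentage.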

[11] = po, chickens, worm count on 21st day, one value per chicken
[12] = po, chickens, 50 ppm added to feed, worm count on 21st day, one value per chicken
[13] = pigs, 20 mg/Kg orally once, one value per pig
[14] = dogs, administration of 20 mg/Kg repeated three times, given as about 50% or more, read-out: anthelmintic effect against adult filaria
[15] = dogs, 20 mg/Kg x 3 subcutaneously, autopsy on 10th day after the last administration, one value per dog, 20 mg/kg
[16] = dogs, administration of 20 mg/Kg repeated three times
[17] = rats, 50 mg/Kg x 5 orally, autopsy, liver, "Denatured" = fluke body is alive but a part of fluke body has changed, one value per rat
[18] = rats, 50 mg/Kg x 5 orally, one value per rat
[19] = pigs, 50 mg/Kg orally once, Ascaris suum, one value per pig
[20] = chickens, 30 mg/Kg orally in gelatin capsule, one value per chicken (No.1-3)
[21] = chickens, 50 mg/Kg orally in gelatin capsule, one value per chicken (No.1-3)
[22] = pigs, 50 mg/Kg orally once, one value per pig
[23] = pig, Ascaris suum, 30 mg/Kg oral in gelatin capsule, one administration
[24] = feed or water, chicken, 25 ppm in feed
[25] = feed or water, chicken, 50 ppm in feed
[26] = chicken, 30 mg/Kg oral in gelatin capsule, chickens No.1-3
[27] = chicken, 50 mg/Kg oral in gelatin capsule, chickens No.1-3
[28] = pig, 30 mg/Kg oral in gelatin capsule, one administration

C#CCN(OCC=C)C(C)=O [Compound A3, N-propargyl-N-acetyl-O-allylhydroxylamine]
Change of E.P.G. Before administration ([1]; 15 mg/Kg orally once, baseline, one value per cow, 15 mg/kg): 1,700 E.P.G. and 1,500 E.P.G.
Change of E.P.G. 7th day ([1]; 15 mg/Kg orally once, one value per cow): 0 E.P.G.
anthelmintic effect ([1]; one administration of 15 mg/Kg): marked anthelmintic effect
Change of E.P.G. Before administration ([2]; baseline, 10 mg/kg): 1,900 E.P.G. and 2,700 E.P.G.
Change of E.P.G. 7th day [2]: 0 E.P.G.
Number of worm bodies remaining in enteron ([3]; 50 mg/Kg x 5 times orally): 0
Worm egg detection on 10th day after administration ([3]; 50 mg/Kg x 5 times orally, one value per cat (Table A7)): -
anthelmintic effect [3]: marked anthelmintic effects
inhibition in vivo at 10 ppm [4, 11]: 100%
inhibition in vivo at 50 ppm [4, 12]: 100%
Change of E.P.G. Before administration ([5]; pigs, 20 mg/Kg orally once, baseline, one value per pig, 20 mg/kg): 1,600 E.P.G. and 1,000 E.P.G.
Change of E.P.G. 7th day [5, 13]: 0 E.P.G.
anthelmintic effect ([5]; pigs): marked anthelmintic effect
inhibition in vivo at 20 mg/kg [6, 14]: ≥ 50%
Effect on adult filaria: Number of worms killed/Total parasites [6, 15]: 13/18 and 4/ 8
Effect on adult filaria: Percent of worms killed [6, 15]: 72% and 50%
Number of microfilaria/20 µl On 10th day after the last administration ([6]; dogs, 20 mg/Kg x 3 subcutaneously, earlobe blood, one value per dog): 0 /20 µl
anthelmintic effect against microfilaria (mf) [6, 16]: marked anthelmintic effect
Condition of fluke body [7, 17]: dead
Presence or absence of fluke egg in fecal matter On 21st day after the last administration [7, 18]: -

C#CCN(OCCCC)C(=O)c1ccccc1 [Compound A10, N-propargyl-N-benzoyl-O-butylhydroxylamine]
anthelmintic effect ([8]; one administration of 20 mg/Kg): marked anthelmintic effect
Change of E.P.G. 7th day ([8]; pigs, 20 mg/Kg orally once, Ascaris suum, one value per pig): 0 E.P.G.
inhibition in vivo at 10 ppm [4, 11]: 80 to 90%
inhibition in vivo at 50 ppm [4, 12]: 100%
Change of E.P.G. 7th day [9, 13]: 0 E.P.G.
Condition of fluke body [7, 17]: dead
Presence or absence of fluke egg in fecal matter On 21st day after the last administration [7, 18]: -

C=CCN(OC)C(=O)c1ccccc1 [Compound B5, N-allyl-N-benzoyl-O-methylhydroxylamine]
anthelmintic effect ([8]; one administration of 50 mg/Kg): marked anthelmintic effect
Change of E.P.G. 7th day [8, 19]: 0 E.P.G.
inhibition in vivo at 20 ppm [4, 11]: 80 to 90%
inhibition in vivo at 50 ppm [4, 12]: 100%
inhibition in vivo at 30 mg/kg [10, 20]: 100%
inhibition in vivo at 50 mg/kg [10, 21]: 100%
Change of E.P.G. Before administration ([9]; pigs, 50 mg/Kg orally once, baseline, one value per pig, 50 mg/kg): 2,100 E.P.G. and 1,300 E.P.G.
Change of E.P.G. 7th day [9, 22]: 0 E.P.G.

C=CCN(OCCCC)C(=O)c1ccccc1 [Compound B19, N-allyl-N-benzoyl-0-butylhydroxylamine]
anthelmintic effect ([8]; one administration of 50 mg/Kg): marked anthelmintic effect
Change of E.P.G. 7th day [8, 19]: 0 E.P.G.
Number of worm bodies remaining in enteron ([3]; 50 mg/Kg x 5 times orally): 0
Worm egg detection on 10th day after administration ([3]; 50 mg/Kg x 5 orally, one value per cat (Table B7)): -
anthelmintic effect [3]: marked anthelmintic effects
inhibition in vivo at 20 ppm [4, 11]: 80 to 90%
inhibition in vivo at 50 ppm [4, 12]: 100%
inhibition in vivo at 30 mg/kg [10, 20]: 100%
inhibition in vivo at 50 mg/kg [10, 21]: 100%
Change of E.P.G. 7th day [9, 22]: 0 E.P.G.
Condition of fluke body ([7]; rat, 50 mg/Kg x 5): dead
Presence or absence of fluke egg in fecal matter On 21st day after the last administration ([7]; rat, 50 mg/Kg x 5): -
anthelmintic effect ([7]; rats): marked antihelmintic effect

C=CCON(CC=C)C(=O)CCC [Compound C3]
Change of E.P.G. 7th day [8, 23]: 0
Change of E.P.G. Before administration ([8]; pig, Ascaris suum, before 30 mg/Kg oral (baseline)): 1,300 and 2,100
anthelmintic effect ([8]; one administration of 30 mg/Kg): marked anthelmintic effect
inhibition in vivo at 25 ppm [4, 24]: 80 to 90%
inhibition in vivo at 50 ppm [4, 25]: 100%
inhibition in vivo at 30 mg/kg [10, 26]: 80 to 90%
inhibition in vivo at 50 mg/kg [10, 27]: 100%
Change of E.P.G. 7th day [9, 28]: 0

C=CCON(CC=C)C(=O)c1ccccc1 [Compound C6]
Change of E.P.G. 7th day [8, 23]: 0
anthelmintic effect ([8]; one administration of 30 mg/Kg): marked anthelmintic effect
inhibition in vivo at 25 ppm [4, 24]: 100%
inhibition in vivo at 50 ppm [4, 25]: 100%
Change of E.P.G. 21st day ([4]; chicken, 25 ppm in feed): 0
Change of E.P.G. 21st day ([4]; chicken, 50 ppm in feed): 0
Change of E.P.G. 7th day ([5]; pig, Oesophagostomum dentatum, 20 mg/Kg, one administration): 0
anthelmintic effect ([5]; pigs): marked anthelmintic effect
inhibition in vivo at 30 mg/kg [10, 26]: 100%
inhibition in vivo at 50 mg/kg [10, 27]: 100%
Change of E.P.G. 7th day [9, 28]: 0
Change of E.P.G. Before administration ([9]; pig, before 30 mg/Kg oral (baseline)): 4,300 and 5,800
Condition of fluke body ([7]; rat, 50 mg/Kg x 5): dead
Presence or absence of fluke egg in fecal matter On 21st day after the last administration ([7]; rat, 50 mg/Kg x 5): -
anthelmintic effect ([7]; rats): marked antihelmintic effect

C#CCNOCC.Cl [Compound D10, N-propargyl-O-ethylhydroxylamine hydrochloride]
Change of E.P.G. 7th day ([8]; pig, Ascaris suum, 20 mg/Kg, one administration): 0
inhibition in vivo at 15 mg/kg ([10]; chicken, 15 mg/Kg oral in gelatin capsule, chickens No.1-3): 100%
inhibition in vivo at 30 mg/kg [10, 26]: 100%
Change of E.P.G. 7th day ([9]; pig, 20 mg/Kg, one administration): 0
inhibition in vivo at 20 mg/kg ([6]; dog, 20 mg/Kg x 3, subcutaneous injection, read-out: Effect on adult filaria: Percent of worms killed): 54%
inhibition in vivo at 20 mg/kg [6, 14]: ≥ 50%
Number of microfilaria/20µl On 10th day after the administration ([6]; dog, 20 mg/Kg x 3, subcutaneous injection): 0 /20µl
Effect on adult filaria: Number of worms killed/ Total parasite ([6]; dog, 20 mg/Kg x 3, subcutaneous injection, hydrochloride, 20 mg/kg): 18/33 and 20/28
anthelmintic effect against microfilaria (mf) [6, 16]: marked anthelmintic effect

From EP0103895A2, “Novel hydroxylamine derivatives, production and use thereof” (MEIJI SEIKA KABUSHIKI KAISHA, priority 1982, dated 1984)
